Measured values: ChEMBL document CHEMBL1201862, “PubChem BioAssay data set” (2004)
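Cultured in 96-well plates, cells were exposed to test compound for 48 hours across five concentrations. GI50 marks 50% less growth.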 The source made the active and inactive calls. Rule as the data show it: active = GI50 up to about 1.1 µM and inactive = higher. Non-standard residues stand in square brackets, D forms with d. Residues, ends and D or L forms follow the SMILES beside them. ξ: configuration not given here. *: point of attachment. ξHyp = O=C(O)C1CC(O)CN1; Cbz = O=C(OCc1ccccc1)*

Assays:
Test in all cases: NCI-60 cell line screen, 48 h
UO-31 = system: UO-31
EKVX = system: EKVX
Malme-3M = system: Malme-3M
ACHN = system: ACHN
HCT-15 = system: HCT-15
SR = system: SR
SW-620 = system: SW-620
RPMI-8226 = system: RPMI-8226
NCI-H226 = system: NCI-H226
U-251 = system: U-251
MDA-MB-435 = system: MDA-MB-435
786-0 = system: 786-0
NCI/ADR-RES = system: NCI/ADR-RES
DU-145 = system: DU-145
KM12 = system: KM12
SF-268 = system: SF-268
COLO 205 = system: COLO 205
UACC-257 = system: UACC-257
SK-MEL-2 = system: SK-MEL-2

| SMILES | GI50 (UO-31) | GI50 (EKVX) | GI50 (Malme-3M) | GI50 (ACHN) | GI50 (HCT-15) | GI50 (SR) | GI50 (SW-620) | GI50 (RPMI-8226) | GI50 (NCI-H226) | GI50 (U-251) | GI50 (MDA-MB-435) | GI50 (786-0) | GI50 (NCI/ADR-RES) | GI50 (DU-145) | GI50 (KM12) | GI50 (SF-268) | GI50 (COLO 205) | GI50 (UACC-257) | GI50 (SK-MEL-2) |
| --- | --- | --- | --- | --- | --- | --- | --- | --- | --- | --- | --- | --- | --- | --- | --- | --- | --- | --- | --- |
| Cc1ccc2c(c1)c1ccc3c(c1n2C)C(=O)C=CC3=O | 1.41 µM (inactive) | > 4.85 µM (inactive) | 2 µM (inactive) | 1.56 µM (inactive) | 1.75 µM | 0.27 µM (active) | 0.543 µM (active) | 1.23 µM (inactive) | > 6.85 µM (inactive) | > 7.31 µM (inactive) | 2.35 µM (inactive) | 1.95 µM (inactive) | 2.96 µM (inactive) | 7.33 µM (inactive) | 6.84 µM (inactive) | 3.43 µM (inactive) | 1.26 µM (inactive) | 2.51 µM (inactive) | 7.48 µM (inactive) |
| COc1ccc(-c2cn3c(nc4ccccc43)c(C)n2)cc1 | 13.7 µM (inactive) | 83 µM (inactive) | 69.2 µM (inactive) | 45.2 µM (inactive) | > 93.1 µM | > 77.4 µM (inactive) | > 100 µM (inactive) | > 75.9 µM (inactive) | > 68.5 µM (inactive) | 50.4 µM (inactive) | > 96.2 µM (inactive) | 41 µM (inactive) | 33.6 µM (inactive) | 51.1 µM (inactive) | > 100 µM (inactive) | > 51.5 µM (inactive) | > 100 µM (inactive) | > 61.9 µM (inactive) | 44.9 µM (inactive) |
| Cc1cc(C)c(S(=O)(=O)N(CCCN)OCCON(CCCN)S(=O)(=O)c2c(C)cc(C)cc2C)c(C)c1 | 23.3 µM (inactive) | 5.24 µM (inactive) | 1.93 µM (inactive) | 23.7 µM (inactive) | 25.7 µM | 3.12 µM (inactive) | > 22.2 µM (inactive) | 2.05 µM (inactive) | 4.44 µM (inactive) |  | 3.89 µM (inactive) | 3.93 µM (inactive) | 22.1 µM (inactive) | 5.68 µM (inactive) | 2.17 µM (inactive) | 2.18 µM (inactive) | 2.66 µM (inactive) | 3.39 µM (inactive) | 1.64 µM (inactive) |
| O=c1[nH]nc(-c2ccccc2)n1/N=C/c1cccc([N+](=O)[O-])c1 | > 100 µM (inactive) | > 100 µM (inactive) | > 100 µM (inactive) | > 100 µM (inactive) | > 100 µM | 77.8 µM (inactive) | > 100 µM (inactive) | > 100 µM (inactive) | > 100 µM (inactive) | 41.5 µM (inactive) | > 100 µM (inactive) | > 100 µM (inactive) | 41.4 µM (inactive) | > 100 µM (inactive) | > 100 µM (inactive) | > 100 µM (inactive) | > 100 µM (inactive) | > 100 µM (inactive) | > 100 µM (inactive) |
| O=c1c2c3c(sc2nc(S)n1-c1ccccc1)CCCc1ccc([N+](=O)[O-])cc1-3 | 26.9 µM (inactive) | > 100 µM (inactive) | 35.7 µM (inactive) | 81.3 µM (inactive) | 22 µM | 27.4 µM (inactive) | 10.4 µM (inactive) | 22.6 µM (inactive) | > 100 µM (inactive) | 39.8 µM (inactive) | 49.5 µM (inactive) | 54 µM (inactive) | 25.8 µM (inactive) | 48.9 µM (inactive) | > 100 µM (inactive) | 36.1 µM (inactive) | > 100 µM (inactive) | 29.2 µM (inactive) | > 100 µM (inactive) |
| Cc1ccc(Nc2nc3c(=O)n(C)c(=O)n(C)c3nc2Nc2ccc(C)cc2)cc1 | 12.1 µM (inactive) | 16 µM (inactive) | 14.9 µM (inactive) | 3.46 µM (inactive) | 3.32 µM | 5.38 µM (inactive) | 1.74 µM (inactive) | 7.62 µM (inactive) | 28.8 µM (inactive) | 16.3 µM (inactive) | 12.1 µM (inactive) | 6.04 µM (inactive) | 17.2 µM (inactive) | 32.4 µM (inactive) | 16.4 µM (inactive) | 16 µM (inactive) | 4.67 µM (inactive) | 15.7 µM (inactive) | 17.8 µM (inactive) |
| O=C(O)c1ccc(NC(c2ccccc2)c2ccc3cccnc3c2O)cc1 (centres undefined) | 5.75 µM (inactive) | 7.85 µM (inactive) | 29 µM (inactive) | 8.41 µM (inactive) | 4.95 µM | 3.32 µM (inactive) | 5.77 µM (inactive) | 4.38 µM (inactive) | 3.88 µM (inactive) | 4.17 µM (inactive) | 16.3 µM (inactive) | 6.04 µM (inactive) | 3.5 µM (inactive) | 17.7 µM (inactive) | 5.14 µM (inactive) | 7.1 µM (inactive) | 9.84 µM (inactive) | 11.1 µM (inactive) | 26.1 µM (inactive) |
| NC(=O)CNC(=O)C1CC(O)CN1C(=O)OCc1ccccc1 (centres undefined) (Cbz-[ξHyp]-Gly-NH2) | > 100 µM (inactive) | 41.4 µM (inactive) | > 100 µM (inactive) | > 100 µM (inactive) | > 100 µM | > 100 µM (inactive) | > 100 µM (inactive) | > 100 µM (inactive) | > 100 µM (inactive) | > 100 µM (inactive) | > 100 µM (inactive) | > 100 µM (inactive) | > 100 µM (inactive) | > 100 µM (inactive) | > 100 µM (inactive) | 74.6 µM (inactive) | > 100 µM (inactive) | > 100 µM (inactive) | > 100 µM (inactive) |
| O=C(O)C(Br)C(Br)c1ccccc1[N+](=O)[O-] (centres undefined) | 5.46 µM (inactive) | > 100 µM (inactive) | > 100 µM (inactive) | > 100 µM (inactive) | > 100 µM | > 100 µM (inactive) | > 100 µM (inactive) | > 100 µM (inactive) | > 100 µM (inactive) | > 100 µM (inactive) | > 100 µM (inactive) | > 100 µM (inactive) | > 100 µM (inactive) | > 100 µM (inactive) | > 100 µM (inactive) | > 100 µM (inactive) | > 100 µM (inactive) | > 100 µM (inactive) | > 100 µM (inactive) |
| CCOC(=O)C(NC(=O)OCc1ccccc1)C(=O)O (centres undefined) | > 100 µM (inactive) | > 100 µM (inactive) | > 100 µM (inactive) | > 100 µM (inactive) | > 100 µM | > 100 µM (inactive) | > 100 µM (inactive) | > 100 µM (inactive) | > 100 µM (inactive) | > 100 µM (inactive) | > 100 µM (inactive) | > 100 µM (inactive) | > 100 µM (inactive) | > 100 µM (inactive) | > 100 µM (inactive) | > 100 µM (inactive) | > 100 µM (inactive) | > 100 µM (inactive) | > 100 µM (inactive) |
| O=C1OCC2(CO1)CC1C=CC2C1 (centres undefined) | > 100 µM (inactive) | > 100 µM (inactive) | > 100 µM (inactive) | > 100 µM (inactive) | > 100 µM | > 100 µM (inactive) | > 100 µM (inactive) | > 100 µM (inactive) | > 100 µM (inactive) | > 100 µM (inactive) | > 100 µM (inactive) | > 100 µM (inactive) | > 100 µM (inactive) | > 100 µM (inactive) | > 100 µM (inactive) | > 100 µM (inactive) | > 100 µM (inactive) | > 100 µM (inactive) | > 100 µM (inactive) |
| COc1cc(S(=O)(=O)Nc2ccc(-c3csc(N)n3)cc2)ccc1Cl | 19.8 µM (inactive) | 16.6 µM (inactive) | 16.6 µM (inactive) | 17.4 µM (inactive) | 20.1 µM | 21.9 µM (inactive) | 24.3 µM (inactive) | 19.5 µM (inactive) | 26.4 µM (inactive) |  | 20.8 µM (inactive) | 16.4 µM (inactive) | 33.9 µM (inactive) | 18 µM (inactive) |  | 34.4 µM (inactive) | 17 µM (inactive) |  | 18.8 µM (inactive) |
| CC1CC2CCCC(=O)C2=C(O)O1 (centres undefined) | > 100 µM (inactive) | 86.7 µM (inactive) | > 100 µM (inactive) | > 100 µM (inactive) | > 100 µM | > 100 µM (inactive) | > 100 µM (inactive) | > 100 µM (inactive) | > 100 µM (inactive) | > 100 µM (inactive) | > 100 µM (inactive) | > 100 µM (inactive) | > 100 µM (inactive) | > 100 µM (inactive) | > 100 µM (inactive) | > 100 µM (inactive) | > 100 µM (inactive) | > 100 µM (inactive) | > 100 µM (inactive) |
| COC1CC(N)(c2ccccc2)C(O)C(C)O1 (centres undefined) | > 100 µM (inactive) | > 100 µM (inactive) | > 100 µM (inactive) | > 100 µM (inactive) | > 100 µM | > 100 µM (inactive) | > 100 µM (inactive) | > 100 µM (inactive) | > 100 µM (inactive) | > 100 µM (inactive) | > 100 µM (inactive) | > 100 µM (inactive) | > 100 µM (inactive) | > 100 µM (inactive) |  | > 100 µM (inactive) | > 100 µM (inactive) | > 100 µM (inactive) | > 100 µM (inactive) |
| C/C(CC(O)(C(F)(F)Cl)C(F)(F)Cl)=N\Nc1ccccc1 | 31.2 µM (inactive) | 23.1 µM (inactive) | 32.4 µM (inactive) | 27 µM (inactive) | 32.1 µM | 39.1 µM (inactive) | 31 µM (inactive) | 30.2 µM (inactive) | 25.2 µM (inactive) | 28.2 µM (inactive) | 31.9 µM (inactive) | 41.1 µM (inactive) | 24.8 µM (inactive) | 49 µM (inactive) | 29.1 µM (inactive) |  | 31.8 µM (inactive) | 44.7 µM (inactive) | 21.5 µM (inactive) |
